Test results: patent US9675556B2, “Biodegradable stealth polymeric particles fabricated using the macromonomer approach by free radical dispersion polymerization” (Howard University, priority 2010, dated 2017)

Legend:
Assay in all cases: CellTiter-Glo luminescent cell viability assay (in vitro cytotoxicity)
Assay type in all cases: cell-based
Details in all cases: […] to 120 nM paclitaxel, 48, 72 and 96 hours
[1] = system: MCF-7 cells
Experimental: (§1) The concentrations tested range from 2.5 nM to 120 nM. The experiment was carried out as follows: Cultured cells (MCF-7, SK-OV 3, and MDA-MB-231) were seeded in 96-well plates at a seeding density of 6000 cells/well/0.1 mL medium and allowed to attach for 24 hours. […] To allow direct comparison, the amount of paclitaxel-loaded nanoparticles containing the same amount of paclitaxel as the paclitaxel in solution was used. Control cells were treated with medium only, medium with 0.05% DMSO, and medium containing blank nanoparticles at the highest concentration tested.
(§2) Cell viability was assessed at 48-, 72- and 96-hours post treatment respectively. Briefly, at the predetermined time intervals the treatment was washed off and fresh medium added. An amount of the CellTiter®-Glo reagent equal to the amount of medium was added. The plate was mixed by shaking on an orbital shaker for 2 minutes to induce cell lysis and luminescence was measured after 10 minutes using the FLUOstar OPTIMA plate reader (BMG LABTECH). In this assay, the number of viable cells in culture is determined by quantification of the ATP present which is an index of the presence of metabolically active cells (CellTiter®-Glo Luminescent Cell Viability Assay Technical Bulletin, TB 288; Promega). Results are presented as percent viability normalized to controls and represent the mean±S.D. of 4 replicates per concentration tested, as shown in FIG. 9. The results were analyzed by using Student's t-test using the SPSS® statistical software. Differences were considered significant at p<0.05.

[2] = system: MDA-MB-231 cells
Experimental: as §1, §2

[3] = system: SK-OV-3 cells
Experimental: as §1, §2

Measured: cell growth inhibition (cell viability)

CC(=O)O[C@H]1C(=O)[C@@]2(C)[C@H]([C@H](OC(=O)c3ccccc3)[C@]3(O)C[C@H](OC(=O)[C@H](O)[C@@H](NC(=O)c4ccccc4)c4ccccc4)C(C)=C1C3(C)C)[C@]1(OC(C)=O)CO[C@@H]1C[C@@H]2O [paclitaxel solution, paclitaxel]
inhibited cell growth: all assays above
